This is an account of results in patent US8058243B2, “Method for treating a brain cancer with ifenprodil” (HSC Research and Development Limited Partnership, priority 2006, dated 2011).

Experiment [1] concerns murine neural precursor cells (neurosphere cultures). The experiment is described as follows: HTS of LOPAC library against secondary neurosphere cultures, MTT proliferation assay at 3 μM, day 7 (z score, P value). It is filed as cell-based, mouse.
Experiment [2] concerns mouse NSC neurosphere cultures. In words: Dose-response curves and EC50, neurosphere MTT proliferation, 7 days. It is filed as cell-based.
Experiment [3] concerns ptc1+/− medulloblastoma precursor cells (neurosphere cultures). In words: Medulloblastoma tumor sphere MTT proliferation EC50. It is filed as cell-based, mouse. The source says:
Astrocyte Screen and Neurosphere Selectivity Assessment. […] Murine Medulloblastoma Generation and Culture. […] Flow Cytometry. […] Results

For experiment [4], the system named is hGBM1 precursors (WHO grade IV GBM). In words: Human glioblastoma precursor EC50 (hGBM1). The experiment is classed as cell-based. To be noted: Homo sapiens.
In experiment [5] the test system is hGBM2 precursors (WHO grade IV GBM, giant cell variant). The experiment is described as follows: Human glioblastoma precursor EC50 (hGBM2). The experiment is classed as cell-based. Conditions: Homo sapiens.
[6] abbreviates: LOPAC primary screen, neurosphere MTT proliferation, 3 μM, day 7.
The mark [7] stands for this setting: yes/no: significantly inhibited neurosphere proliferation (P<0.01) in the primary screen.
Where [8] appears, read: Table 8, read-out: Neurosphere EC50.
The mark [9] stands for this setting: LOPAC library screen, 3 μM, MTT, secondary neurosphere cultures, day 7.
Setting [10] is: yes = significantly inhibited neurosphere proliferation (P<0.01) in the primary screen.
Setting [11] is: Mus musculus, read-out: EC 50% Neurosphere, Table 5.
Setting [12] is: Mus musculus, Table 8, read-out: Neurosphere EC50.
[13] abbreviates: read-out: EC 50% Neurosphere, Table 5.
[14] abbreviates: Mus musculus, ptc1+/− medulloblastoma derived neurospheres, read-out: Medulloblastoma Neurosphere EC50.
[15] abbreviates: cultures derived from mouse cerebellar tumor samples, read-out: Ptch1+/− neurosphere EC50.
[16] abbreviates: 168 h, normal mouse neurosphere cultures, MTT, 7 days, read-out: Neurosphere EC50.
Setting [17] is: ptc1+/− medulloblastoma derived neurospheres, read-out: Medulloblastoma Neurosphere EC50.
Where [18] appears, read: LOPAC screen, neurosphere MTT proliferation, 3 μM, day 7.
[19] abbreviates: yes/no: significantly inhibited neurosphere proliferation (P<0.01) in primary screen.
Where [20] appears, read: normal mouse neurosphere cultures, MTT, 7 days, read-out: Neurosphere EC50.
Where [21] appears, read: primary LOPAC screen, 3 μM, MTT, neurosphere proliferation.
[22] abbreviates: yes/no: significantly inhibited neurosphere proliferation in the primary screen.
[23] abbreviates: yes/no: significantly inhibited neurosphere proliferation in primary screen.

pEC50: −log10 of the molar value. Read-outs that look alike come from different tables or passages of the source.

Regarding `CCCCCCCCCCC/C=C\C(C)(C)/C=C\CCCC(=O)O` [7,7-Dimethyl-(5Z,8Z)-eicosadienoic acid], in experiment [1], the “Z Score” value is −3.045. In experiment [1] (setting [6]), this compound displayed a Z score of −3.045. The Activity result in experiment [1] (setting [7]) is “yes”. Besides, the pEC50 in experiment [2] (setting [8]) was 5.29.

On to `CC(C)COCC(CN(Cc1ccccc1)c1ccccc1)N1CCCC1` (centres unmarked) [Bepridil (28), Bepridil, reference compound], for which the “Z Score” value in experiment [1] (setting [9]) is on record as −2.655. This compound also returned a Z score in experiment [1] (setting [6]) of −2.655. In addition, the Activity result in experiment [1] (setting [10]) was “yes”. The pEC50 in experiment [2] (setting [11]) and in experiment [2] (setting [12]) was 5.57 in each case.

Consider `CN1CCN(c2nc3cc(C(F)(F)F)ccc3n3cccc23)CC1.O=C(O)/C=C\C(=O)O` [CGS-12066A (40), reference compound], for which the “Z Score” value in experiment [1] (setting [9]) is reported as −2.575. The Z score in experiment [1] (setting [6]) is recorded as −2.575. Besides, the Activity result in experiment [1] (setting [10]) is “yes”. In addition, the pEC50 in experiment [2] (setting [8]) and in experiment [2] (setting [13]) was 5.70 in each case.

`COc1cc(CNC(=O)CCCCCCC(C)C)ccc1O` [Dihydrocapsaicin (15), Dihydrocapsaicin]: the pEC50 is 7.70 in experiment [3] (setting [14]), 7.70 in experiment [3] (setting [15]), 4.05 in experiment [4] and 4.67 in experiment [5]. Besides, in experiment [1] (setting [9]), the “Z Score” value is reported as −10. This compound had a Z score in experiment [1] (setting [6]) of −10.003. Also, the Activity entry in experiment [1] (setting [7]) is reported as “yes”.

For the compound `c1ccc2c(c1)[I+]c1ccccc1-2` [Diphenyleneiodonium (33), Diphenyleneiodonium, reference compound], the “Z Score” value in experiment [1] (setting [9]) is −10.07. Moreover, in experiment [1] (setting [6]), the Z score was −10.068. Besides, the Activity entry in experiment [1] (setting [10]) is “yes”. Besides, the pEC50 in experiment [2] (setting [11]) and in experiment [2] (setting [12]) was 7.96 in each case.

For the compound `CC1=C(/C=C/C(C)=C/C=C/C(C)=C/C(=O)Nc2ccc(O)cc2)C(C)(C)CCC1` [Fenretinide (11), Retinoic acid p-hydroxyanilide], the pEC50 in experiment [3] (setting [14]) was 6.69; in experiment [3] (setting [15]), 6.69; in experiment [2] (setting [16]) it was 6.48; in experiment [2] (setting [11]) it was 6.48; in experiment [2] (setting [12]), 6.48. Moreover, in experiment [1] (setting [9]), the “Z Score” value is given as −6.013. In experiment [1] (setting [6]), this compound came in with a Z score of −6.013. Further, the Activity entry in experiment [1] (setting [7]) is reported as “yes”.

Consider `S=C=Nc1cccc(C2(N3CCCCC3)CCCCC2)c1` [Metaphit (35), Metaphit, reference compound], for which the “Z Score” value in experiment [1] was −4.967. In experiment [1] (setting [6]), this compound showed a Z score of −4.967. In addition, the Activity result in experiment [1] (setting [7]) is recorded as “yes”. Also, the pEC50 in experiment [2] (setting [11]) and in experiment [2] (setting [12]) was 5.00 in each case.

On to `CC[C@H](C)C(=O)O[C@H]1CCC=C2C=C[C@H](C)[C@H](CC[C@@H]3C[C@@H](O)CC(=O)O3)[C@H]21` [Mevastatin (20), Mevastatin], for which, in experiment [2] (setting [12]), the pEC50 was 6.85.

Regarding `COc1ccc(CCNC[C@H](O)c2ccc(O)cc2)cc1OC` [R(−)-Denopamine (24), R(−)-Denopamine], the pEC50 in experiment [2] (setting [8]) was 4.41.

Turning to `Oc1ccc(-c2nc(-c3ccc(F)cc3)c(-c3ccncc3)[nH]2)cc1` [SB 202190 (13)], the pEC50 is 5.52 in experiment [3] (setting [15]); 5.52 in experiment [3] (setting [17]); 5.09 in experiment [2] (setting [8]); 5.09 in experiment [2] (setting [20]); 5.09 in experiment [2] (setting [13]). For the same compound, the “Z Score” value in experiment [1] (LOPAC library screen at 3 μM, secondary neurosphere cultures, MTT) was −1.124. This compound also came in with a Z score in experiment [1] (setting [18]) of −1.124. Besides, the Activity result in experiment [1] (setting [19]) is given as “no”.

With `CC(C)COC(=O)OCN1C(=O)CN(CCN2CC(=O)N(COC(=O)OCC(C)C)C(=O)C2)CC1=O` [Sobuzaxane (19), Sobuzaxane], the pEC50 in experiment [2] (setting [8]) was 4.99.

On to `CC(=O)O[C@H]1C(=O)[C@@]2(C)[C@H]([C@H](OC(=O)c3ccccc3)[C@]3(O)C[C@H](OC(=O)[C@H](O)[C@@H](NC(=O)c4ccccc4)c4ccccc4)C(C)=C1C3(C)C)[C@]1(OC(C)=O)CO[C@@H]1C[C@@H]2O` [Taxol (21), Taxol], for which, in experiment [2] (setting [12]), the pEC50 was 8.00.

For the compound `CC[C@]1(O)C[C@@H]2CN(CCc3c([nH]c4ccccc34)[C@@](C(=O)OC)(c3cc4c(cc3OC)N(C)[C@H]3[C@@](O)(C(=O)OC)[C@H](OC(C)=O)[C@]5(CC)C=CCN6CC[C@]43[C@@H]65)C2)C1` [Vinblastine(22), Vinblastine], the pEC50 in experiment [2] (setting [12]) was 7.55.

Take `COc1cc2ncnc(Nc3ccc(O)cc3)c2cc1OC` [WHI-P131 (12), 4-(4′-hydroxylphenyl)-amino-6,7-dimethoxyquinazoline]: the pEC50 was 5.82 in experiment [3] (setting [14]); 5.82 in experiment [3] (setting [15]); 5.63 in experiment [2] (setting [16]); 5.63 in experiment [2] (setting [11]); 5.63 in experiment [2] (setting [12]).

As to `Cl.Cl.OCCN1CCN(CC/C=C2/c3ccccc3Sc3ccc(C(F)(F)F)cc32)CC1` [cis-(Z)-Flupenthixol (7), cis-(Z)-Flupenthixol], the pEC50 in experiment [3] (setting [15]) was 6.73; in experiment [3] (setting [17]), 6.73; in experiment [2] (setting [8]), 6.70; in experiment [2] (setting [20]), 6.70; in experiment [2] (setting [13]) it was 6.70. The “Z Score” value in experiment [1] (setting [9]) is −8.822. This compound also displayed a Z score in experiment [1] (setting [6]) of −8.822. The Activity entry in experiment [1] (setting [7]) is recorded as “yes”.

For the compound “(R)-(−)-Propylnorapomorphine [(R)-(−)-Propylnorapomorphine (5)]”, the pEC50 is 6.70 in experiment [3] (setting [15]); 6.70 in experiment [3] (read-out: Medulloblastoma Neurosphere EC50); 6.45 in experiment [2] (setting [8]); 6.45 in experiment [2] (setting [20]); 6.45 in experiment [2] (setting [13]). The Activity entry in experiment [1] is “yes”. Further, the “Z Score” value in experiment [1] was −8.274. The Z score in experiment [1] is recorded as −8.274.

Turning to S(−)-Willardiine, in experiment [1], the “Z Score” value was determined as 1.251. The Z score in experiment [1] (setting [21]) amounted to 1.251. The Activity result in experiment [1] (setting [22]) was “no”.

For the compound S(−)-p-Bromotetramisole oxalate, the “Z Score” value in experiment [1] is listed as −1.295. In experiment [1] (setting [6]), this compound yielded a Z score of −1.295. Moreover, the Activity entry in experiment [1] (setting [23]) is listed as “no”.

Regarding S-(−)-Carbidopa, the “Z Score” value in experiment [1] (setting [9]) was −2.314. In experiment [1] (setting [18]), this compound gave a Z score of −2.314. In addition, the Activity entry in experiment [1] (setting [19]) is reported as “no”.

Consider S-(−)-Eticlopride hydrochloride, for which the “Z Score” value in experiment [1] is reported as −5.158.

For S-(−)-Lisuride, in experiment [1], the “Z Score” value is recorded as −0.1473 and the Z score was −0.147.

As for SKF 83565 hydrobromide, the Activity entry in experiment [1] (setting [23]) was “no”.

For Terbutaline hemisulfate, in experiment [1] (LOPAC library screen, 3 μM, MTT, neurosphere cultures), the “Z Score” value came to 0.6409. This compound returned a Z score in experiment [1] (setting [21]) of 0.641. Besides, the Activity entry in experiment [1] (setting [22]) was “no”.

For “Tyrphoslin AG 34 [Tyrphoslin AG 34 (37)]”, the pEC50 in experiment [2] (setting [8]) is 5.00.

On to Tyrphostin AG 808, for which, in experiment [1] (setting [9]), the “Z Score” value is −1.315. This compound gave a Z score in experiment [1] (setting [21]) of −1.315. The Activity result in experiment [1] (setting [22]) is “no”.

For the compound Vinblastine sulfate salt, in experiment [1], the “Z Score” value was −9.396. This compound also returned a Z score in experiment [1] (setting [6]) of −9.396. The Activity entry in experiment [1] (setting [7]) is on record as “yes”.

Regarding WB 64, the “Z Score” value in experiment [1] is on record as −1.683. This compound also returned a Z score in experiment [1] (setting [21]) of −1.683. Also, in experiment [1] (setting [22]), the Activity entry is listed as “no”.

Turning to m-Iodobenzylguanidine hemisulfate, in experiment [1], the Activity entry is recorded as “yes”, the “Z Score” value is −2.564 and the Z score is −2.564.

trans-(±)-ACPD came in with a Z score in experiment [1] (setting [21]) of 0.315. For the same compound, in experiment [1] (setting [22]), the Activity entry is recorded as “no”.
